How the values were obtained:
[1] = system: albumin; assay: intravitreal Ang II-induced retinal albumin leakage; type: in vivo, mice; details: for intravitreal Ang II-induced retinal albumin leakage: EET 15 μg/kg/day s.c., Ang II intravitreal on day 3, leakage significant only with 11,12-EET
Method: B6 Mice were injected mice with Ang II (1 or 5 μg per eye) or vehicle assayed for albumin leakage. The expression of albumin was used as the index of leakage assay. Mice were treated with 11, 12-EET (15 μg/kg/day, s.c.; Alzet: Cayman), 14,15-EET (15 μg/kg/day, s.c.; Alzet; Cayman), or vehicle. 11,12-EET and 14,15-EET were used because they are the major products of cytochrome P450 (CYP) epoxygenases. On day 3 after treatment, mice were intravitreally injected with Ang II (5 μg/μl).

[2] = system: albumin; assay: intravitreal hVEGF-induced retinal albumin leakage; type: in vivo; details: 11,12-EET 15 μg/kg/day s.c. one week; sEH KO vs sEH (+/+) mice
Method: sEH (−/−) and sEH (+/+) mice were treated with 11, 12-EET (15 μg/kg/day, s.c.; Alzet) or a vehicle for one week, then injected with hVEGF.

[3] = system: albumin; assay: intravitreal Ang II-induced retinal albumin leakage in diabetic mice; type: in vivo; details: for intravitreal Ang II-induced retinal albumin leakage in diabetic mice: 11,12-EET 15 μg/kg/day s.c., MS-PPOH 20 mg/kg/day i.p.
Method: (§1) One week after mice developed diabetes, diabetic and control mice were assigned to the following groups: Ang II (intravitreal injection with 5 μg/1 μL of Ang II); diabetes+Ang II; diabetes+Ang II+11,12-EET (15 μg/kg/day, s.c.; Alzet); diabetes+Ang II+MS-PPOH (CAS No. 206052-02-0-(N-methylsulfonyl-6-(2-propargyloxyphenyl)hexanamide, a selective EETs blocker; 20 mg/kg/day, i.p); and control. 11,12-EET was used because it potentiates intravitreal Ang II-induced retinal damage (FIGS. 4A-4C); also, MS-PPOH was used in a previous study (Huang, H., Exp Biol Med (Maywood), 231:1744-1752 (2006)).

[4] = blood glucose levels in diabetic mice; type: in vivo; details: diabetic mice + Ang II; vs. 483±122 without treatment; not affected
Method: as §1

[5] = system: GLUT-1; assay: GLUT-1 expression in HRECs under HG and hypoxia; type: cell-based, human; details: HG (25 mM D-Glucose) + CO (CoCl2 hypoxia)
Method: (§2) The expression of albumin, ICAM-1, IL-6, GADPH, GLUT-1, and sEH was analyzed by homogenization of tissues or cells. Samples from mice in different treatments as well as human retinal endothelial cells (HRECs) were separated by electrophoresis for 3 h. The proteins were transferred to an enhanced chemiluminescence (ECL) membrane in a transfer buffer. The membranes were blocked for 90 min with 5% nonfat dry milk in Tris-buffered saline. The membranes were incubated with antibody against albumin (1:5000; Bethyl), ICAM-1 (1:2000; Cell Signaling), IL-6 (1:2000; Santa Cruz), GADPH (1:2000; abeam), GLUT-1 (1:10,000; abeam), or sEH (1:500; Santa. Cruz). The membranes were incubated with secondary antibody for albumin, ICAM-1, IL-6, GADPH, GLUT-1, or sEH. Chemiluminescent detection using ECL reagent from Millipore Corporation was done on X-ray film. In addition, quantification of the expression levels of these proteins was analyzed with NIH image J software.
Methods and Materials HRECs were subjected to L-glucose (osmotic control), L-Glu+hypoxia (CoCl2, 5 μM; CO), HG (25 mM of D-Glucose), or HG+CO.

[6] = EUCLID trial, 530 participants, after two years of treatment; cited from earlier work
[7] = DIRECT trial, oral treatment; cited from earlier work
[8] = system: sEH; assay: Western blot of sEH protein in tissues of Ang II-infused mice; type: in vivo
Method: as §2, with “Eight-week-old male B6 mice were treated for 4 weeks with Ang II (3 mg/kg/day, s.c.; […]; Cayman), Ang II (Sigma), or vehicle. […]. The expression” for “The expression”
Male mice were treated for 4 weeks with Ang II (3 mg/kg/day, s.c.; Alzet)+telmisartan, a selective AT1 antagonist (2.5 mg/kg/day in drinking water; Cayman), Ang II, or vehicle.
as §2, with “abcam),” for “abeam),”, “Santa” for “Santa.”

[9] = blood pressure in Ang II-induced hypertension; type: in vivo, mice; details: Ang II 3 mg/kg/day s.c., 4 weeks, vs vehicle
[10] = system: albumin; assay: Western blot of total retinal albumin in Ang II-infused mice (retinal permeability); type: in vivo; details: Ang II 3 mg/kg/day s.c., 4 weeks, vs vehicle
Method: The expression of albumin, ICAM-1 IL-6, GADPH, GLUT-1, and sEH was analyzed by homogenization of tissues or cells. Samples from mice in different treatments as well as human retinal endothelial cells (HRECs) were separated by electrophoresis for 3 h. The proteins were transferred to an enhanced chemiluminescence (ECL) membrane in a transfer buffer. The membranes were blocked for 90 min with 5% nonfat dry milk in Tris-buffered saline. The membranes were incubated with antibody against albumin (1:5000; Bethyl), ICAM-1 (1:2000; Cell Signaling), IL-6 (1:2000; Santa Cruz), GADPH (1:2000; abcam), GLUT-1 (1:10,000; abcam), or sEH (1:500; Santa Cruz). The membranes were incubated with secondary antibody for albumin, ICAM-1, IL-6, GADPH, GLUT-1, or sEH. Chemiluminescent detection using ECL reagent from Millipore Corporation was done on X-ray film. In addition, quantification of the expression levels of these proteins was analyzed with NIH image J software.

Molecule: CCCCC/C=C\C[C@H]1O[C@H]1C/C=C\C/C=C\CCCC(=O)O [11,12-EET]
- intravitreal Ang II-induced retinal albumin leakage [1]: promoted
- potency in potentiating intravitreal Ang II-induced retinal damage ([1]; comparison of the two EETs): more potent than 14,15-EET
- effects of 11,12-EET on intravitreal hVEGF-induced retinal vascular leakage [2]: potentiated
- intravitreal Ang II-induced retinal albumin leakage in diabetic mice [3]: increased
- blood glucose levels [4]: 528 ± 53 mg/dL
- GLUT-1 expression in HRECs [5]: promoted GLUT-1 expression

Molecule: CCCCCC1OC1C/C=C\C/C=C\C/C=C\CCCC(=O)O (stereo not shown) [14,15-EET]
- intravitreal Ang II-induced retinal albumin leakage [1]: promoted
- GLUT-1 expression in HRECs [5]: promoted GLUT-1 expression

Molecule: NCCCC[C@H](N[C@@H](CCc1ccccc1)C(=O)O)C(=O)N1CCC[C@H]1C(=O)O [Lisinopril]
- reduction of progression of DR [6]: 50%
- reduction of progression to proliferative DR [6]: 80%

Molecule: C#CCOc1ccccc1CCCCCC(=O)NS(C)(=O)=O [MS-PPOH, N-methylsulfonyl-6-(2-propargyloxyphenyl)hexanamide]
- intravitreal Ang II-induced retinal albumin leakage in diabetic mice [3]: decreased
- blood glucose levels [4]: 502 ± 57 mg/dL

Molecule: CCOc1nc2cccc(C(=O)O)c2n1Cc1ccc(-c2ccccc2-c2nnn[nH]2)cc1 [candesartan]
- incidence of diabetic retinopathy [7]: decreased the incidence of diabetic retinopathy
- progression of established diabetic retinopathy [7]: did not reduce the progression of established diabetic retinopathy

Molecule: CCCc1nc2c(C)cc(-c3nc4ccccc4n3C)cc2n1Cc1ccc(-c2ccccc2C(=O)O)cc1 [telmisartan]
- Ang II-induced sEH expression in the heart ([8]; heart, Ang II + telmisartan 2.5 mg/kg/day in drinking water, 4 weeks): attenuated
- Ang II-induced sEH expression in the kidney ([8]; kidney, Ang II + telmisartan 2.5 mg/kg/day in drinking water, 4 weeks): attenuated
- Ang II-induced retinal expression of sEH ([8]; retina, Ang II + telmisartan 2.5 mg/kg/day in drinking water, 4 weeks): reversed

Molecule: Ang II: angiotensin II, produced from Ang I by angiotensin-converting enzyme (DRVYIHPF; Angiotensin-2; UniProt P01019 25-32, looked up)
- blood pressure [9]: became hypertensive
- retinal sEH protein levels, elevation vs vehicle group ([8]; retina, Ang II 3 mg/kg/day s.c., 4 weeks): 2 fold
- retinal expression of sEH ([8]; retina, Ang II infusion 3 mg/kg/day s.c., 4 weeks (Example 4)): increased
- total retinal albumin [10]: did not affect total retinal albumin
- albumin leakage (blood retinal barrier disruption) in diabetes ([3]; intravitreal Ang II 5 μg/1 μL, diabetic mice): significant increases in albumin leakage
